Results as given in ChEMBL document CHEMBL1201862, “PubChem BioAssay data set” (2004).
Activity calls are given as the source filed them.

How the values were obtained:
[1] = target: T1, Protein RecA (Mycobacterium tuberculosis, UniProt P9WHJ3); assay: Fluorescence Cell-Free Homogeneous Dose Retest to Identify Inhibitors of RecA-Intein Splicing Activity. [Related pubchem assays (depositor defined):AID2097, AID2223, AID489010, AID492950]; assay type: functional
T1 sequence (P9WHJ3 whole entry): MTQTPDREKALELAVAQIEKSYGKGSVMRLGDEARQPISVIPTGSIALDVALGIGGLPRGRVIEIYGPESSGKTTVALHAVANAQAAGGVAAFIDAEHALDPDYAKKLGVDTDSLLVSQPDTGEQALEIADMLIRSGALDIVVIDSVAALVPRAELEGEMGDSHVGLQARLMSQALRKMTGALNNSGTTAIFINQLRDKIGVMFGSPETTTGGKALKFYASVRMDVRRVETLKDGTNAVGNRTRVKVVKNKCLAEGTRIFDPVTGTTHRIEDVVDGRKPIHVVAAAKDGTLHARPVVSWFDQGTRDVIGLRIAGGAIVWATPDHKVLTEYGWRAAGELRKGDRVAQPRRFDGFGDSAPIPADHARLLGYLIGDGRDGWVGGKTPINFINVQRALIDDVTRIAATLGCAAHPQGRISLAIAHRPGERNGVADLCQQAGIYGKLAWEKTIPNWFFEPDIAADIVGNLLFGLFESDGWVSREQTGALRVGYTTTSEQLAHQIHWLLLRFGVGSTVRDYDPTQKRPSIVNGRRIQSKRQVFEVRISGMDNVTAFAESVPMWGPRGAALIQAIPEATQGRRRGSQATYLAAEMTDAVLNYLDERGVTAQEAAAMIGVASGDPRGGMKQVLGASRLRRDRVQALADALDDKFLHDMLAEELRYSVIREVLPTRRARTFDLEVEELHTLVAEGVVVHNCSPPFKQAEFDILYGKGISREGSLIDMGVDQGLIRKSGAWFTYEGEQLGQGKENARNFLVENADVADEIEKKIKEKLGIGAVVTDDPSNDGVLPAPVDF

[2] = reduced cellular PGC1a acetyl-lysine signal – cell-based, cherry-picked samples, dose response (AID 720514); assay type: functional;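 also: potency may reflect raised or lowered acetylation signal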
[3] = Counterscreen for activators of the function of SWI/SNF related, matrix associated, actin dependent regulator of chromatin, subfamily a, member 2 (SMARCA2, BRM): Luminescence-based cell-based high throughput dose response assay to identify non-selective compounds using the VP16 reporter assay.; assay type: functional
[4] = target: T2, Replicative DNA helicase DnaB (Mycobacterium tuberculosis, UniProt P9WMR3); assay: DnaB intein splicing inhibitors, dose response, biochemical, cell-free fluorescence (AID 449749); assay type: functional
T2 sequence (P9WMR3 whole entry): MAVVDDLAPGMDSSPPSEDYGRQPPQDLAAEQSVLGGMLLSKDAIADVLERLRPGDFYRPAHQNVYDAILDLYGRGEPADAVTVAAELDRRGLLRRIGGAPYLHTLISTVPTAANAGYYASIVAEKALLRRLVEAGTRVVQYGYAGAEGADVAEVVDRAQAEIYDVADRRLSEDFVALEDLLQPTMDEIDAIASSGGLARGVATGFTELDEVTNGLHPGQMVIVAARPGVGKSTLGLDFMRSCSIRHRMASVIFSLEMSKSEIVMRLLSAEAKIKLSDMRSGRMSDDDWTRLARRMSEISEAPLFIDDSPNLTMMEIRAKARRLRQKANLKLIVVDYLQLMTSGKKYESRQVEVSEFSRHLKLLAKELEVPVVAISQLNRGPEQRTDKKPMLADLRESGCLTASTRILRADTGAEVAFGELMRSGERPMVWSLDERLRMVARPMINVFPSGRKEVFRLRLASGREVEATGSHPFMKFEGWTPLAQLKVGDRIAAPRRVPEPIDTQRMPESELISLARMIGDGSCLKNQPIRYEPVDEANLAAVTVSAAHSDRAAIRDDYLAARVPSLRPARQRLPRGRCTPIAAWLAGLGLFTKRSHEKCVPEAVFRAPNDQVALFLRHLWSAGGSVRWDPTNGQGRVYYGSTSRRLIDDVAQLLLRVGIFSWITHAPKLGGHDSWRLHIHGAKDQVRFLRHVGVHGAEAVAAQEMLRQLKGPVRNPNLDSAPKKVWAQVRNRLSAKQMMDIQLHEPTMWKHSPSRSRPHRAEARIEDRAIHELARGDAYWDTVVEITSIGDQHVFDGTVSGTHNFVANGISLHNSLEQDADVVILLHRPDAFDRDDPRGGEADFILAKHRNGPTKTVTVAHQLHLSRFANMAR

[5] = target: SWI/SNF-related matrix-associated actin-dependent regulator of chromatin subfamily A member 2 (Homo sapiens, UniProt P51531); assay: Luminescence-based cell-based high throughput dose response assay to identify activators of the function of SWI/SNF related, matrix associated, actin dependent regulator of chromatin, subfamily a, member 2 (SMARCA2, BRM).; assay type: functional
Sequence of SWI/SNF-related matrix-associated actin-dependent regulator of chromatin subfamily A member 2 (P51531 whole entry): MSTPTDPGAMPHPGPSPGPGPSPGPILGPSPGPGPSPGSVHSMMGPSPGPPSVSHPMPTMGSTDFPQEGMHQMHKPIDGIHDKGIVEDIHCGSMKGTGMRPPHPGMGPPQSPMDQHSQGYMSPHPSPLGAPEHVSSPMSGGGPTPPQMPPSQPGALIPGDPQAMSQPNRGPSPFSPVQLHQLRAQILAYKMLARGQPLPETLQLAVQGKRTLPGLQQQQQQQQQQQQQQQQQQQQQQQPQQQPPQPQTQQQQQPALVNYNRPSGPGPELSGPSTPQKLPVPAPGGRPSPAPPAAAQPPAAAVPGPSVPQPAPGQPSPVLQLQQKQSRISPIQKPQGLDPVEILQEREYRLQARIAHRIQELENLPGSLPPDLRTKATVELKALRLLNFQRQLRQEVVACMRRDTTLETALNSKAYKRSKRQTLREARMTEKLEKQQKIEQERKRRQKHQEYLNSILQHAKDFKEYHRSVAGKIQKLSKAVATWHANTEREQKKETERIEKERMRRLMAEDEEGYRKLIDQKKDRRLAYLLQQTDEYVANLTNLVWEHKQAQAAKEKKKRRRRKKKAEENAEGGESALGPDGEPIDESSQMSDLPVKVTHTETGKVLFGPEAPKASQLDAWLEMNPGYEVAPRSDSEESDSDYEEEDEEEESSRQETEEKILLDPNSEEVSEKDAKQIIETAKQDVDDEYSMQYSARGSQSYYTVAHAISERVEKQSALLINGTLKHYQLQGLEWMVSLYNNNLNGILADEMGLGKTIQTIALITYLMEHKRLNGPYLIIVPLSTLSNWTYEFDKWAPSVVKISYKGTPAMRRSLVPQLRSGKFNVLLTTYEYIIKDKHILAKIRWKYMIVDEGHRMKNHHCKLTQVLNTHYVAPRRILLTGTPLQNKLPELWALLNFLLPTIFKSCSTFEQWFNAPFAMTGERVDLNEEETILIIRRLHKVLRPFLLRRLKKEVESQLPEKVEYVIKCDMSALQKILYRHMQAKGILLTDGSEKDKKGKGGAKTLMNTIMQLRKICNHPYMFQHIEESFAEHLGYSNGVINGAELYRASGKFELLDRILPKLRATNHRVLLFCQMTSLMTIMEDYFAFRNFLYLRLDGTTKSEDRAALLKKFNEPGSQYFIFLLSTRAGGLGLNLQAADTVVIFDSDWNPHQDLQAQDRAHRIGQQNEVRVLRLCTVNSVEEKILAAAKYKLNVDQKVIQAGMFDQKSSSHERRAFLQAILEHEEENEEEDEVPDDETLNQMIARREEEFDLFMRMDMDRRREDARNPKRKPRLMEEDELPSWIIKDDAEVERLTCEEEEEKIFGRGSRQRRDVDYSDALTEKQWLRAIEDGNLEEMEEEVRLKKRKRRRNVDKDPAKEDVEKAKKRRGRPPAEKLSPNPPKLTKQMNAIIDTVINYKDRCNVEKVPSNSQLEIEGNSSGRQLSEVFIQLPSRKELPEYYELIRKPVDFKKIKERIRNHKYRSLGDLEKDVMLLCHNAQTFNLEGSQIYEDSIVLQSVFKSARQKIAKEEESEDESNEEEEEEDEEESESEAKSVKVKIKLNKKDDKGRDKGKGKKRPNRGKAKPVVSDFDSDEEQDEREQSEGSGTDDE

[6] = target: T3, Low molecular weight phosphotyrosine protein phosphatase (Homo sapiens, UniProt P24666); assay type: functional; details: read-out: IC50_Mean
T3 sequence (P24666 whole entry): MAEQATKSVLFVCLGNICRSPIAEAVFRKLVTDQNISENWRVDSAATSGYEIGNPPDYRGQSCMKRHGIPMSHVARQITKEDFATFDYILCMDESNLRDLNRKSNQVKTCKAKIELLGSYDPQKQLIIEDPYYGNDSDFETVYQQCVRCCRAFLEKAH

[7] = target: T3, Low molecular weight phosphotyrosine protein phosphatase; assay type: functional; details: read-out: IC50_Mean; remark: listed apart in the source
[8] = mouse fibroblast viability loss – cell-based, cherry-pick samples, set 2, cytotoxicity control for T. cruzi growth inhibitor project, dose response (AID 651817); assay type: functional; details: NIH3T3
[9] = test system: A549; assay: viability loss in A549 cells – cell-based, plate reader, cherry-pick samples, cytotoxicity control, dose response (AID 687028); assay type: functional; details: Homo sapiens
[10] = HeLa cell viability loss – plate reader, dry powder, cytotoxicity control, dose response (AID 651946); assay type: functional, cell-based
[11] = target: Fatty acid synthase (Homo sapiens, UniProt P49327); assay: inhibition of human FAS-TE enzyme activity – biochemical, endpoint fluorescence intensity, powder samples, SAR follow-up (AID 652164); assay type: functional
Sequence of Fatty acid synthase (P49327 whole entry): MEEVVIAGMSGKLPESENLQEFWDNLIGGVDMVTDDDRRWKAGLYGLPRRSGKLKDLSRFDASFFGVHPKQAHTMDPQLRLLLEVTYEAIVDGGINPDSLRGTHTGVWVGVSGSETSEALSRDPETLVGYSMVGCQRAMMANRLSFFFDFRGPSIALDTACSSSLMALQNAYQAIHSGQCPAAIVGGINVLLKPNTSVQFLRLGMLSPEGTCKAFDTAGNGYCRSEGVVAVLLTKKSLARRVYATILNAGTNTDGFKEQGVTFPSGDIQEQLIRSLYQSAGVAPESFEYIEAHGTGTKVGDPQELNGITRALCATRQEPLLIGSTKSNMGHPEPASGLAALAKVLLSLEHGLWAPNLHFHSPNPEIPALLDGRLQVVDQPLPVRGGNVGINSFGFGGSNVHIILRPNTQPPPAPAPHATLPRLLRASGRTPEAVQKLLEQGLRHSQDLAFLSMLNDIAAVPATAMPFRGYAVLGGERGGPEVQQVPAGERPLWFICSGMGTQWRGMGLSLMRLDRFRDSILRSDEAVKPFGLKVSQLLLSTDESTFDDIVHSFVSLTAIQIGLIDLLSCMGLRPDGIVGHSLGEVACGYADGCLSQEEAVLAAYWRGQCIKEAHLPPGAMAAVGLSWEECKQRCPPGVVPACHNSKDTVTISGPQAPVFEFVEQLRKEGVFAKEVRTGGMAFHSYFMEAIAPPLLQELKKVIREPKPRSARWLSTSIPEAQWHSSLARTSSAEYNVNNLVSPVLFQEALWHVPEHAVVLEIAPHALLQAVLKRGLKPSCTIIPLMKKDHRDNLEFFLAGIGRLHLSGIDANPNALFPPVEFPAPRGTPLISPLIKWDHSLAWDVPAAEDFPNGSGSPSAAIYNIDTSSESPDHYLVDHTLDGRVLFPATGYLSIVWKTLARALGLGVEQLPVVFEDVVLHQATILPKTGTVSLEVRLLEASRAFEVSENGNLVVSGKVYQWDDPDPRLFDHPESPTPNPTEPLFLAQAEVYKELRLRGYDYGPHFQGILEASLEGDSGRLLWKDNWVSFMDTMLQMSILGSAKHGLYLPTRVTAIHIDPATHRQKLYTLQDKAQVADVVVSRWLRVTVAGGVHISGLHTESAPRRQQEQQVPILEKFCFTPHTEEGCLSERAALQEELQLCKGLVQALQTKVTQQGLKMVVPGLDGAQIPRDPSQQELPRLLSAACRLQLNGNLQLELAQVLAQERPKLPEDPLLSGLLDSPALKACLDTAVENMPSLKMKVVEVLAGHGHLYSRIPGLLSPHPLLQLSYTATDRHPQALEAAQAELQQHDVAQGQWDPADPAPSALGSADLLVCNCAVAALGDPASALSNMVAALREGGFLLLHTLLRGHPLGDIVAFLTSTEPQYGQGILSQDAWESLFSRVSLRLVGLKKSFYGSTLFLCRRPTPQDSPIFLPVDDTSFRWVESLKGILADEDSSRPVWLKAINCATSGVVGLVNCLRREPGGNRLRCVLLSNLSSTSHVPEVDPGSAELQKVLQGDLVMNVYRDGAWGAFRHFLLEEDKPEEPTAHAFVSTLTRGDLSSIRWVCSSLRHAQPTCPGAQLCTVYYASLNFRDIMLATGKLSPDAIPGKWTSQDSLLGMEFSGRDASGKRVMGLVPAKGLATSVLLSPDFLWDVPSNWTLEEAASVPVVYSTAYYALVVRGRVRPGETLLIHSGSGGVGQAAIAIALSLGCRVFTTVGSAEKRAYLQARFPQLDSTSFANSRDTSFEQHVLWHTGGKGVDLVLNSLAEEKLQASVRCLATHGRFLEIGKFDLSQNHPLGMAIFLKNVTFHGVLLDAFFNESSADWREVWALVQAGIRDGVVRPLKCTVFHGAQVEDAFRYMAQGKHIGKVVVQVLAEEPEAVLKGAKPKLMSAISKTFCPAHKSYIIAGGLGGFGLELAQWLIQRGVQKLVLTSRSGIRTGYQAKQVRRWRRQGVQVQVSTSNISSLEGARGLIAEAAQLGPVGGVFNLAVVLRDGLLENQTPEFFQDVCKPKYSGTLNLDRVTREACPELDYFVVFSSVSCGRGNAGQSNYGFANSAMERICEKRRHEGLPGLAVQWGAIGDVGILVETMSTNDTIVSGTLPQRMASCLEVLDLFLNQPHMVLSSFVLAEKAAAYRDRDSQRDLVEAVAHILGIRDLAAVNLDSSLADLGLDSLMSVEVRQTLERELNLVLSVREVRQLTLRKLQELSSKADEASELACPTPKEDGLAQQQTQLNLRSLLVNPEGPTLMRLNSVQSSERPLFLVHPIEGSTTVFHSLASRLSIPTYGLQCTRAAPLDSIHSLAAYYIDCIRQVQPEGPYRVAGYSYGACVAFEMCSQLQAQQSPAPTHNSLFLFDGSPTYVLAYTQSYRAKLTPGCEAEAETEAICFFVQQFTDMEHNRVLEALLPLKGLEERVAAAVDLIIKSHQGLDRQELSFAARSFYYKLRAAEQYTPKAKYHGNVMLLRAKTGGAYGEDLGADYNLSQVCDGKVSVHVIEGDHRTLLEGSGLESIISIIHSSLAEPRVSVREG

[12] = target: Kappa-type opioid receptor (Homo sapiens, UniProt P41145); assay: kappa opioid receptor antagonism potency – cell-based, fluorescence, dose response, late-stage follow-up (AID 652032); assay type: functional
Sequence of Kappa-type opioid receptor (P41145 whole entry): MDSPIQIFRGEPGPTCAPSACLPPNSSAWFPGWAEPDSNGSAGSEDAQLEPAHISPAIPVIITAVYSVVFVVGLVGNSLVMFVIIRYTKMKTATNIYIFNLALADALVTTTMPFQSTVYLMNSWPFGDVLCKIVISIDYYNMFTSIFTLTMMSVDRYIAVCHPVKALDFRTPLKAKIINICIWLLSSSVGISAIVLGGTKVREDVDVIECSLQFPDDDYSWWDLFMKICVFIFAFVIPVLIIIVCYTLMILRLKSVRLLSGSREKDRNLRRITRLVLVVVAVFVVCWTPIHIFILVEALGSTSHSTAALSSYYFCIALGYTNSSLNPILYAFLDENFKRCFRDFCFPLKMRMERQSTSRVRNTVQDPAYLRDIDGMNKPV

Cc1cc(C)cc(OC(=O)C[S+]([O-])c2ccc(C(F)(F)F)cc2[N+](=O)[O-])c1 (configuration not stated)
EC50 [1]: 1.3 µM (active) | AC50 [2]: 10.3 µM (active) | EC50 [3]: > 91.2 µM (inactive) | AC50 [4]: 4.03 µM (active) | EC50 [5]: > 91.2 µM (inactive)

O=C1C(=Cc2cn(-c3ccccc3)nc2-c2ccc(OCc3ccc(Cl)cc3)cc2)SC(=S)N1CCS(=O)(=O)O
IC50 [6]: 7.21 µM (active) | IC50 [7]: 1.35 µM (active)

C[C@@H]1CN([C@H](C)CO)C(=O)Cc2cc(NS(=O)(=O)c3ccc(Cl)cc3)ccc2O[C@H]1CN(C)S(=O)(=O)c1ccc(Cl)cc1
AC50 [8]: 16.9 µM (active)

C[C@@H]1CCCCO[C@@H](CN(C)C(=O)Cc2ccccc2)[C@H](C)CN([C@H](C)CO)C(=O)c2cc(NS(=O)(=O)c3ccc(Cl)cc3)ccc2O1
AC50 [9]: 31.2 µM (active)

[O-][S+](Cc1cn(-c2ccccc2)nn1)c1nnc(-c2ccc(Cl)cc2)o1 (configuration not stated)
AC50 [10]: 15.6 µM (active)

CC(=O)Nc1nc(-c2ccc(S(=O)(=O)N3CCOCC3)cc2)cs1
IC50 [11]: 11.4 µM (active)

COC(=O)c1cc(Br)cnc1N1CCCC(NC2CCCCC2)C1 (configuration not stated)
IC50 [12]: 11.7 µM (inactive)
